# Experimental data as given in patent US9255085B2, “Carboxamide compounds and methods for using the same” (Rigel Pharmaceuticals, Inc., priority 2008, dated 2016).
# Biological target: AMPK
# Test: AMPK activation, enzyme-linked immunosorbent assay
# Type: biochemical
# Conditions: ELISA, Table 2
# Method: Compounds 1-13 were assayed for their ability to activate AMPK using an enzyme-linked immunosorbent assay.
# Compounds 14-16 were assayed for their ability to activate AMPK using an enzyme-linked immunosorbent assay.
# Compounds 17-18 were assayed for their ability to activate AMPK using an enzyme-linked immunosorbent assay.
# Compounds 19-22 were assayed for their ability to activate AMPK using an enzyme-linked immunosorbent assay.
# Compounds 23-26 were assayed for their ability to activate AMPK using an enzyme-linked immunosorbent assay.
# Compounds 27-33 were assayed for their ability to activate AMPK using an enzyme-linked immunosorbent assay.
# Compounds 34-42 were assayed for their ability to activate AMPK using an enzyme-linked immunosorbent assay.
row,EC50,SMILES
1,< 0.1 µM,"N#Cc1ccc(CN2CCC(NC(=O)c3nc4ccc(OC5CCN(c6ccc(C(F)(F)F)cc6)CC5)cc4o3)CC2)cc1 [Compound 2, N-(1-(4-Cyanobenzyl)piperidin-4-yl)-6-(1-(4-(trifluoromethyl)phenyl)piperidin-4-yloxy)benzo[d]oxazole-2-carboxamide]"
2,< 0.1 µM,"O=C(NC1CCN(C(=O)c2ccc(F)cc2)CC1)c1nc2ccc(OC3CCN(c4ccc(C(F)(F)F)cc4)CC3)cc2o1 [Compound 4, N-(1-(4-Fluorobenzoyl)piperidin-4-yl)-6-(1-(4-(trifluoromethyl)phenyl)piperidin-4-yloxy)benzo[d]oxazole-2-carboxamide]"
3,< 0.1 µM,"CC(C)(C)OC(=O)N1CCC(NC(=O)c2nc3ccc(OC4CCN(c5ccc(C(F)(F)F)cc5)CC4)cc3o2)CC1 [Compound 1, tert-butyl 4-(6-(1-(4-(trifluoromethyl)phenyl)piperidin-4-yloxy)benzo[d]oxazole-2-carboxamido)piperidine-1-carboxylate]"
4,0.1 to 1 µM,"N#Cc1ccc(CN2CC3CC2CN3C(=O)c2nc3ccc(OC4CCN(c5ccc(C(F)(F)F)cc5)CC4)cc3o2)cc1 (stereo not drawn) [Compound 10, 4-((5-(6-(1-(4-(Trifluoromethyl)phenyl)piperidin-4-yloxy)benzo[d]oxazole-2-carbonyl)-2,5-diazabicyclo[2.2.1]heptan-2-yl)methyl)benzonitrile]"
5,10 to 100 µM,"O=C(NC1CCNCC1)c1nc2ccc(OC3CCN(c4ccc(C(F)(F)F)cc4)CC3)cc2o1 [Compound 5, N-(Piperidin-4-yl)-6-(1-(4-(trifluoromethyl)phenyl)piperidin-4-yloxy)benzo[d]oxazole-2-carboxamide]"
6,< 0.1 µM,"O=C(NC1CCN(Cc2ccncc2)CC1)c1nc2ccc(OC3CCN(c4ccc(C(F)(F)F)cc4)CC3)cc2o1 [Compound 3, N-(1-(Pyridin-4-ylmethyl)piperidin-4-yl)-6-(1-(4-(trifluoromethyl)phenyl)piperidin-4-yloxy)benzo[d]oxazole-2-carboxamide]"
7,< 0.1 µM,"N#Cc1ccc(C(=O)N2CCC(NC(=O)c3nc4ccc(OC5CCN(c6ccc(C(F)(F)F)cc6)CC5)cc4o3)CC2)cc1 [Compound 6, N-(1-(4-Cyanobenzoyl)piperidin-4-yl)-6-(1-(4-(trifluoromethyl)phenyl)piperidin-4-yloxy)benzo[d]oxazole-2-carboxamide]"

# Further lines, the compound ahead of its results:
row,SMILES,EC50
1,"NC(=O)c1ccc(CN2CC3CC2CN3C(=O)c2nc3ccc(OC4CCN(c5ccc(C(F)(F)F)cc5)CC4)cc3o2)cc1 (stereo not drawn) [Compound 9, 4-((5-(6-(1-(4-(Trifluoromethyl)phenyl)piperidin-4-yloxy)benzo[d]oxazole-2-carbonyl)-2,5-diazabicyclo[2.2.1]heptan-2-yl)methyl)benzamide]",0.1 to 1 µM
2,"N#Cc1ccc(C(=O)N2CC3CC2CN3C(=O)c2nc3ccc(OC4CCN(c5ccc(C(F)(F)F)cc5)CC4)cc3o2)cc1 (stereo not drawn) [Compound 12, 4-(5-(6-(1-(4-(trifluoromethyl)phenyl)piperidin-4-yloxy)benzo[d]oxazole-2-carbonyl)-2,5-diazabicyclo[2.2.1]heptane-2-carbonyl)benzonitrile]",< 0.1 µM
3,"O=C(c1ccncc1)N1CC2CC1CN2C(=O)c1nc2ccc(OC3CCN(c4ccc(C(F)(F)F)cc4)CC3)cc2o1 (stereo not drawn) [Compound 11, (5-Isonicotinoyl-2,5-diazabicyclo[2.2.1]heptan-2-yl)(6-(1-(4-(trifluoromethyl)phenyl)piperidin-4-yloxy)benzo[d]oxazol-2-yl)methanone]",0.1 to 1 µM
4,"O=C(c1ccc(F)cc1)N1CC2CC1CN2C(=O)c1nc2ccc(OC3CCN(c4ccc(C(F)(F)F)cc4)CC3)cc2o1 (stereo not drawn) [Compound 13, (5-(4-fluorobenzoyl)-2,5-diazabicyclo[2.2.1]heptan-2-yl)(6-(1-(4-(trifluoromethyl)phenyl)piperidin-4-yloxy)benzo[d]oxazol-2-yl)methanone]",< 0.1 µM
5,"O=C(c1nc2ccc(OC3CCN(c4ccc(C(F)(F)F)cc4)CC3)cc2o1)N1CC2CC1CN2Cc1ccncc1 (stereo not drawn) [Compound 8, (5-(pyridin-4-ylmethyl)-2,5-diazabicyclo[2.2.1]heptan-2-yl)(6-(1-(4-(trifluoromethyl)phenyl)piperidin-4-yloxy)benzo[d]oxazol-2-yl)methanone]",0.1 to 1 µM

# Same assay, conditions: ELISA, Table 3
row,EC50,SMILES
1,0.1 to 1 µM,"O=C(NC1CCN(Cc2ccncc2)CC1)c1nc2ccc(OC3CCN(c4ccc(C(F)(F)F)cc4)CC3)cc2s1 [Compound 15, N-(1-(Pyridin-4-ylmethyl)piperidin-4-yl)-6-(1-(4-(trifluoromethyl)phenyl)piperidin-4-yloxy)benzo[d]thiazole-2-carboxamide]"
2,1 to 10 µM,"CC(C)(C)OC(=O)N1CCC(NC(=O)c2nc3ccc(OC4CCN(c5ccc(C(F)(F)F)cc5)CC4)cc3s2)CC1 [Compound 14, tert-butyl 4-(6-(1-(4-(trifluoromethyl)phenyl)piperidin-4-yloxy)benzo[d]thiazole-2-carboxamido)piperidine-1-carboxylate]"
3,0.1 to 1 µM,"N#Cc1ccc(CN2CCC(NC(=O)c3nc4ccc(OC5CCN(c6ccc(C(F)(F)F)cc6)CC5)cc4s3)CC2)cc1 [Compound 16, N-(1-(4-Cyanobenzyl)piperidin-4-yl)-6-(1-(4-(trifluoromethyl)phenyl)piperidin-4-yloxy)benzo[d]thiazole-2-carboxamide]"

# Same assay, conditions: ELISA, Table 4
row,EC50,SMILES
1,< 0.1 µM,"O=C(NC1CCN(Cc2ccncc2)CC1)c1cn2ccc(OC3CCN(c4ccc(C(F)(F)F)cc4)CC3)cc2n1 [Compound 17, N-(1-(Pyridin-4-ylmethyl)piperidin-4-yl)-7-(1-(4-(trifluoromethyl)phenyl)piperidin-4-yloxy)imidazo[1,2-a]pyridine-2-carboxamide]"

# Same assay, conditions: ELISA, Table 5
row,EC50,SMILES
1,1 to 10 µM,"CC(C)(C)OC(=O)N1CCC(NC(=O)c2cnc(OC3CCN(c4ccc(C(F)(F)F)cc4)CC3)cn2)CC1 [Compound 19, tert-butyl 4-(5-(1-(4-(trifluoromethyl)phenyl)piperidin-4-yloxy)pyrazine-2-carboxamido)piperidine-1-carboxylate]"
2,< 0.1 µM,"N#Cc1ccc(CN2CCC(NC(=O)c3cnc(OC4CCN(c5ccc(C(F)(F)F)cc5)CC4)cn3)CC2)cc1 [Compound 22, N-(1-(4-Cyanobenzyl)piperidin-4-yl)-5-(1-(4-(trifluoromethyl)phenyl)piperidin-4-yloxy)pyrazine-2-carboxamide]"

# Same assay, conditions: ELISA, Table 6
row,EC50,SMILES
1,< 0.1 µM,"N#Cc1ccc(CN2CCC(NC(=O)c3cnc(OC4CCN(c5ccc(C(F)(F)F)cc5)CC4)s3)CC2)cc1 [Compound 23, N-(1-(4-cyanobenzyl)piperidin-4-yl)-2-(1-(4-(trifluoromethyl)phenyl)piperidin-4-yloxy)thiazole-5-carboxamide]"
2,< 0.1 µM,"N#Cc1ccc(CN2CCC(NC(=O)c3cnc(OC4CCN(Cc5ccc(C(F)(F)F)cc5)CC4)s3)CC2)cc1 [Compound 25, N-(1-(4-Cyanobenzyl)piperidin-4-yl)-2-(1-(4-(trifluoromethyl)benzyl)piperidin-4-yloxy)thiazole-5-carboxamide]"
3,1 to 10 µM,"CC(C)(C)OC(=O)N1CCC(Oc2ncc(C(=O)NC3CCN(Cc4ccc(C#N)cc4)CC3)s2)CC1 [Compound 26, tert-Butyl 4-(5-(1-(4-cyanobenzyl)piperidin-4-ylcarbamoyl)thiazol-2-yloxy)piperidine-1-carboxylate]"
4,< 0.1 µM,"N#Cc1ccc(CN2CCC(NC(=O)c3cnc(OC4CCN(c5ccc(C#N)cc5)CC4)s3)CC2)cc1 [Compound 24, N-(1-(4-Cyanobenzyl)piperidin-4-yl)-2-(1-(4-cyanophenyl)piperidin-4-yloxy)thiazole-5-carboxamide]"

# Same assay, conditions: ELISA, Table 7
row,EC50,SMILES
1,10 to 100 µM,"N#Cc1ccc(CN2CCC(NC(=O)c3ccc(C(=O)NC4CCN(Cc5ccccc5)CC4)cc3)CC2)cc1 [Compound 33, N^1-(1-Benzylpiperidin-4-yl)-N^4-(1-(4-cyanobenzyl)piperidin-4-yl)terephthalamide]"
2,< 0.1 µM,"N#Cc1ccc(CN2CCC(NC(=O)c3ccc(C(=O)N4CCN(c5ccc(C(F)(F)F)cn5)CC4)cc3)CC2)cc1 [Compound 30, N-(1-(4-Cyanobenzyl)piperidin-4-yl)-4-(4-(5-(trifluoromethyl)pyridin-2-yl)piperazine-1-carbonyl)benzamide]"
3,< 0.1 µM,"N#Cc1ccc(CN2CCC(NC(=O)c3ccc(C(=O)N4CCN(Cc5ccc(Cl)cc5)CC4)cc3)CC2)cc1 [Compound 28, 4-(4-(4-Chlorobenzyl)piperazine-1-carbonyl)-N-(1-(4-cyanobenzyl)piperidin-4-yl)benzamide]"
4,10 to 100 µM,"N#Cc1ccc(CN2CCC(NC(=O)c3ccc(C(=O)N4CCN(c5ccc(Cl)cc5)CC4)cc3)CC2)cc1 [Compound 29, 4-(4-(4-Chlorophenyl)piperazine-1-carbonyl)-N-(1-(4-cyanobenzyl)piperidin-4-yl)benzamide]"

# Same assay, conditions: ELISA, Table 8
row,EC50,SMILES
1,1 to 10 µM,"O=C(NC1CCN(Cc2cccnc2)CC1)c1ccc2c(c1)CN(Cc1ccc(F)cc1)CC2 [Compound 41, 2-(4-Fluorobenzyl)-N-(1-(pyridine-3-ylmethyl)piperidin-4-yl)-1,2,3,4-tetrahydroisoquinoline-7-carboxamide]"
2,0.1 to 1 µM,"O=C(NC1CCN(Cc2ccc(C(F)(F)F)cc2)CC1)c1ccc2c(c1)CN(Cc1ccc(F)cc1)CC2 [Compound 42, 2-(4-Fluorobenzyl)-N-(1-(4-(trifluoromethyl)benzyl)piperidin-4-yl)-1,2,3,4-tetrahydroisoquinoline-7-carboxamide]"
3,1 to 10 µM,"N#Cc1ccc(CN2CCc3ccc(C(=O)NC4CCN(Cc5ccc(C(F)(F)F)cc5)CC4)cc3C2)cc1 [Compound 39, 2-(4-Cyanobenzyl)-N-(1-(4-(trifluoromethyl)benzyl)piperidin-4-yl)-1,2,3,4-tetrahydroisoquinoline-7-carboxamide]"
4,< 0.1 µM,"N#Cc1ccc(CN2CCC(NC(=O)c3ccc4c(c3)CN(Cc3ccc(C#N)cc3)CC4)CC2)cc1 [Compound 37, 2-(4-cyanobenzyl)-N-(1-(4-cyanobenzyl)piperidin-4-yl)-1,2,3,4-tetrahydroisoquinoline-7-carboxamide]"
